Reference: US20240216344A1, “THIAZOLIDINEDIONE ANALOGS FOR THE TREATMENT OF NAFLD AND METABOLIC DISEASES” (Cirius Therapeutics, Inc., priority 2019, published 2024)

Legend:
[1] = system: mice fed a diet enriched in trans fat, cholesterol and fructose; experiment: Preclinical NASH model: trans fat, cholesterol and fructose diet for 19 weeks, NAS and fibrosis histology; type: in vivo; details: 30 mg/kg; treatment of the mice or isolated hepatocytes
Method: Mice were fed a diet enriched in trans fat, cholesterol and fructose for 19 weeks to induce hepatic damage, which was assessed by histological changes in the NAS and fibrosis, measured by trichrome staining for collagen. MSDC-0602K (30 mg/kg) was given at either four weeks into the treatment or 16 weeks into the treatment as compared to the vehicle treated mice who were also on the modified diet. The results of mice who were kept on the normal diet are included for comparison. […] The signals for activation of the stellate cells and fibrosis are attenuated by treatment of the mice or isolated hepatocytes with MSDC-0602K.

[2] = system: 3-dimensional bioprinted human liver organoids; experiment: 3-dimensional bioprinted human liver organoids, fibrosis by collagen staining; type: cell-based; details: added to the tissue medium
[3] = system: patients with NASH; experiment: Meta-analysis of 17 NASH clinical trials: change from baseline in histological components and endpoint counts; type: in vivo, human; details: EMMINENCE trial
Method: Meta-regressions of NASH clinical trials were performed to examine associations between biomarker and histological changes within treatment groups, and to additionally examine associations between treatment effects on biomarkers and on liver histology. Trials that met the following criteria were included: • Randomized controlled clinical trial • Paired biopsies performed at baseline and follow-up, scored using the NASH CRN system.
• Published results at baseline, follow-up, or changes from baseline for any the following liver injury markers or biomarkers: alanine aminotransferase (ALT), aspartate aminotransferase (AST), alkaline phosphatase, hemoglobin A1c (HbA1c), gamma-glutamyltransferase (GGT), insulin, cytokeratin-18 (CK-18), or Enhanced Liver Fibrosis (ELF) score. Variables selected were based on variables whose change was commonly reported in multiple studies. • Changes in histological scores for ballooning, inflammation, steatosis, and fibrosis, or the pre-determined endpoints of NASH resolution without worsening fibrosis or improvement in fibrosis with no worsening of NASH.
All results from a search of PubMed for the keywords (“nonalcoholic steatohepatitis” or “non-alcoholic steatohepatitis”) and (“clinical trial” or “randomized”) and filtered for “Clinical Trial” were reviewed. EudraCT and ClinicalTrials.gov were searched for the keyword “nonalcoholic steatohepatitis” with results further filtered for phase 2 or 3, interventional, terminated or completed trials. These three sources returned 265 (PubMed), 153 (ClinicalTrials.gov), and 56 (EudraCT) results, which were each individually reviewed for inclusion in the analysis. Data extracted by one analyst from each source that included means and SDs at baseline, end of study, and changes from baseline to end of study for continuous variables were verified and corrected by a second analyst. Where SDs were not available, any provided estimate of variation was used to derive the SD where possible; a plot-digitizer program was used where data were presented in figures only. Data for dichotomous endpoints were extracted as the number of subjects with the event and corresponding sample size.
All studies included in the current meta-analysis used the NASH CRN histological scoring system for the scoring of the liver biopsy components. The two dichotomous endpoints considered were based on the currently approvable endpoints per FDA guidelines: NASH resolution without worsening of fibrosis, and fibrosis improvement without worsening of NASH.
Random effects weighted least squares meta-regressions with inverse variance weighting were used to examine the association of changes in ALT, AST, CK-18, HbA1c, fasting insulin levels, ELF, alkaline phosphatase and GGT with biopsy outcomes. CK-18[M30] was measured in all studies except EMMINENCE where CK-18[M651 was reported. These associations were assessed at an individual cohort level (within treatment group), as well as based on the treatment effect. Percent change from baseline in liver injury makers and biomarkers was used as the predictor when examining the associations in the individual cohorts with outcomes while the treatment ratio, the ratio of active to placebo with respect to the relative changes from baseline, was used as the predictor when assessing the association with the treatment effect on outcomes. Standardized mean changes (mean/SD) or standardized mean treatment differences (mean difference/pooled SD) were used for continuous outcomes and Freeman-Tukey double arcsine transformed proportions or log odds ratios were used for dichotomous outcomes. Meta-regression results were computed using the metafor package available in R. P-values <0.05 were considered statistically significant.

COc1cccc(C(=O)COc2ccc(CC3SC(=O)NC3=O)cc2)c1 (centres unmarked) [MSDC-0602K]
signals for activation of the stellate cells and fibrosis [1]: attenuated | effects of the nutrients (stellate cell activation, fibrosis by collagen staining) [2]: both prevented and reversed | Change from Baseline, mean: Ballooning ([3]; MSDC-0602K 62.5 mg): −0.36 | Change from Baseline, mean: Fibrosis ([3]; MSDC-0602K 62.5 mg): 0.06 | Change from Baseline, mean: Inflammation ([3]; MSDC-0602K 62.5 mg): −0.08 | Change from Baseline, mean: Steatosis ([3]; MSDC-0602K 62.5 mg): −0.57 | Fibrosis Improvement ([3]; MSDC-0602K 62.5 mg): 20/99 | NASH Resolution ([3]; MSDC-0602K 62.5 mg): 17/99 | Change from Baseline, mean: Ballooning ([3]; MSDC-0602K 125 mg): −0.42 | Change from Baseline, mean: Fibrosis ([3]; MSDC-0602K 125 mg): −0.12 | Change from Baseline, mean: Inflammation ([3]; MSDC-0602K 125 mg): −0.22 | Change from Baseline, mean: Steatosis ([3]; MSDC-0602K 125 mg): −0.51 | Fibrosis Improvement ([3]; MSDC-0602K 125 mg): 23/98 | NASH Resolution ([3]; MSDC-0602K 125 mg): 23/98 | Change from Baseline, mean: Ballooning ([3]; MSDC-0602K 250 mg): −0.38 | Change from Baseline, mean: Fibrosis ([3]; MSDC-0602K 250 mg): −0.06 | Change from Baseline, mean: Inflammation ([3]; MSDC-0602K 250 mg): −0.12 | Change from Baseline, mean: Steatosis ([3]; MSDC-0602K 250 mg): −0.67 | Fibrosis Improvement ([3]; MSDC-0602K 250 mg): 25/101 | NASH Resolution ([3]; MSDC-0602K 250 mg): 27/101
